Test results as given in publication PMC9189929, “Synthesis, Screening and Characterization of Novel Potent Arp2/3 Inhibitory Compounds Analogous to CK-666” (Frontiers in Pharmacology, 2022).
≈ marks a conversion by molar mass, not a printed value. Entries after “also recorded” stand apart in the source; their conditions may differ.

Experiments:
[1] = system: B16-F1 cells; assay: Lamellipodium formation in B16-F1 cells (cortactin immunofluorescence); assay type: cell-based, mouse; conditions: for Inhibition of lamellipodium formation: 100 μM, 1 h; for Dose-dependent inhibition of lamellipodium formation, potency relative to CK-666: dose-dependent assay (Figure 2D)
Method: Lyophilized compounds were resuspended with fresh DMSO from sealed vials (cell biology grade). Compounds, stored at +4°C, were used within a week. B16-F1 cells were seeded onto glass coverslips coated for 1 h with 25 μg/ml laminin (Sigma) in (50 mM Tris, 150 mM NaCl, pH 7.4). […] Cell were then processed for immunofluorescence.
Cells were fixed in 3.2% PFA on PBS, then quenched with 50 mM NH4Cl and permeabilised with 0.5% Triton X-100. After blocking in 2% BSA cells were incubated with antibodies (1–5 μg/ml for the primary, 5 μg/ml for the secondary). Total actin in cells was visualized by phalloidin staining. Nuclei were stained with 0.3 μg/ml DAPI (Roche). Coverslips were mounted in Dako Fluorescence Mounting Medium (Agilent). For immunofluorescence, ARPC2 rabbit polyclonal antibody (Millipore, 07–227), Cortactin mouse monoclonal 4F11 (Millipore, 05–180) were used. Secondary goat anti-mouse and anti-rabbit antibodies conjugated with Alexa Fluor 555 and 647 respectively were from Life Technologies. Phalloidin conjugated with Alexa Fluor 488 was from Tebu-bio.
(§1) Image analysis was performed in ImageJ or FIJI software. To measure wound healing, boundaries of the wound were drawn manually at different time points, then wound size was measured.

[2] = system: B16-F1 cells; assay: Wound healing (cell migration) of B16-F1 cells; assay type: cell-based, mouse; conditions: for Inhibition of cell migration (wound healing) compared with 100 µM CK-666: compound at 25 µM
Method: For the wound healing, B16-F1 cells were seeded onto 8-well Ibidi dishes coated with laminin, and grown to confluence. Wounds in the cell monolayer were obtained by scratching the monolayer with a pipet tip. Detached cells were immediately washed away and new medium containing the various compounds was added. Cells were then used for videomicroscopy.
Videomicroscopy was performed on an inverted Axio Observer microscope (Zeiss) equipped with a Pecon Zeiss incubator XL multi S1 RED LS (Heating Unit XL S, Temp module, CO2 module, Heating Insert PS and CO2 cover), Definite focus module and a Hamamatsu camera C10600 Orca-R2. Phase contrast images were taken every 30 min for 24 h using the 10X/0.25 Plan-Apochromat air objective. For immunofluorescence, slides were observed and imaged with the 63X/1.4 Plan-Apochromat oil objective. Fluorophores were excited with the HBO 100 W lamp (Osram) installed in the HXP 120 Metal halide fluorescence light source (Zeiss).
as §1

[3] = molecular target: T1, Arp2/3 (Bos taurus, UniProt A7MB62+P61157); assay: Pyrene-actin polymerization assay; assay type: biochemical, bovine; conditions: for IC50: 1.5 μM actin (10% pyrenyl-labeled), read-out: IC50 of Arp2/3-mediated actin polymerization; for IC50 / Arp2/3 inhibition reached at saturation: 20 nM Arp2/3, 250 nM N-WASP VCA; for Arp2/3 inhibition reached at saturation: 1.5 μM actin
T1 construct: purchased Cytoskeleton, Inc
Method: Actin was purified from rabbit muscle and was pyrenyl-labeled ([Carlier et al., 1984]; [Malm, 1984]). Arp2/3 was from Cytoskeleton, Inc. VCA domain of N-WASP was purified as previously described ([Clainche et al., 2003]). Pyrene-actin polymerization assays were performed as previously ([Romero et al., 2007]). Briefly, CaATP-actin was converted into MgATP-actin in (5 mM Tris, 0.2 mM ATP, 0.1 mM CaCl2, 1 mM DTT, 1 mM MgCl2, and 0.2 mM EGTA, pH 7.6) and kept on ice for no more than 1 h. Actin polymerization was monitored in (5 mM Tris, 50 mM KCl, 0.2 mM ATP, 0.1 mM CaCl2, 1 mM DTT, 1 mM MgCl2, 0.2 mM EGTA, pH 7.6) in the presence of 2% DMSO alone or 2% DMSO containing the appropriated compound concentration. The increase in fluorescence of 10% pyrenyl-labeled actin was monitored using a Safas spectrofluorimeter (λexc = 366 nm, λem = 407 nm). The maximum rate of actin polymerization was derived from the maximum slope of the polymerization curve multiplied by [total polymer]/(RFUmax—RFUmin) [total polymer] is the total actin minus the critical concentration (0.1 μM) and RFU, Relative Fluorescence Unit. The maximum elongation rates of actin polymerization were plotted as a function of the concentration of the different compounds. For CK-666, 59, 69 and 71, curves were fitted with the following equation to determine the IC50. Mrate= Rmax−Rmax−Rmin/1+IC50/(Compound Conc.) where Mrate is the measured maximum rate of actin polymerization at a given compound concentration, Rmax is the maximum rate of actin polymerization with no compound, and Rmin is the maximum rate of actin polymerization at saturating concentration of compound.
The curve of compound 15 was fitted with a linear decay. The IC50 was determined at half inhibition of actin polymerization.

[4] = system: MCF10A cells; assay: EdU incorporation / cell cycle progression screen in MCF10A cells; assay type: cell-based, human; conditions: for Outcome of EdU incorporation screen: 0.025 to 100 μM; for IC50: Homo sapiens, MCF-10A, 18 h treatment, rough values from Figure 1 graphs, read-out: IC50 (concentration required for 50% decrease of EdU-positive cells)
Method: For cell cycle progression using EdU, MCF10A cells were seeded in 384-well plates at a density of 800 cells per well. […] EdU from kit C10337 (ThermoFischer Scientific, Waltham, MA, United States) was then added to the cells at 10 μM and incubated for 2.5 h. Cells were fixed in 4% paraformaldehyde for 30 min at room temperature. Click-iT reaction was performed for 1 h at room temperature, protected from light, with 5 µM Alexa Fluor 488 azide in (100 mM Tris, 1 mM CuSO4, 50 mM Ascorbic Acid, pH 8.5). Nuclei were counterstained with Hoechst 33,342 (Thermo Fisher Scientific). Imaging and analysis were performed using the ImageXpress Micro XL High-Content Screening System (Molecular Devices LLC, San Jose, CA, United States). IC50 values were determined by sigmoidal curve fitting using GraphPad Prism six software.

[5] = system: sea urchin embryos; assay: Sea urchin embryo development assay; assay type: in vivo, Paracentrotus lividus; conditions: for Effect on archenteron elongation / Effect on primary mesenchyme cell (PMC) migration: observed up to four-arm mid-pluteus stage
Method: The procedure was described in detail in [Semenova et al., 2018]. Briefly, adult sea urchins, Paracentrotus lividus L (Echinidae), were collected from the Mediterranean Sea on the Cyprus coast and kept in an aerated seawater tank. Gametes were obtained by intracoelomic injection of 0.5 M KCl. Eggs were washed with filtered seawater and fertilized by adding drops of diluted sperm. Embryos were cultured at room temperature under gentle agitation with a motor-driven plastic paddle (60 rpm) in filtered seawater. […] For treatment with test compounds, 5 ml aliquots of embryo suspension were transferred to six-well plates and incubated at a concentration of 1,000–2,000 embryos/ml. For images, sedimented embryos were concentrated in the center of the well by gentle rotation of the culture plate, and 200 μl aliquots containing several hundred embryos were used to take pictures (up to 20 images from different fields). Embryos selected for Figure 4 were representative of the population.
(§2) Stock solutions of compounds were prepared in DMSO at 50–250 mM concentration followed by a 10-fold dilution with 96% EtOH. This procedure enhanced the solubility of the test compounds in the salty seawater. Maximal tolerated concentrations of DMSO and EtOH in the assay were determined to be 0.05 and 1%, respectively. Higher concentrations of either DMSO (>0.1%) or EtOH (>1%) caused nonspecific alterations and retardation of the sea urchin embryo development independent of the treatment stage. Maximum solubility of compounds 15, 59, 69, and 71 was about 5–20 mM in seawater, since visible crystals formed at higher concentrations.
The effects were assessed after exposure of fertilized eggs (8–15 min post fertilization, 45–55 min before the first mitotic cycle completion) to 2-fold decreasing concentrations of the compound. Embryonic development was monitored until the beginning of active feeding at four-arm pluteus stage (33–36 h postfertilization). Developmental abnormalities were estimated quantitatively as minimal effective concentration (MEC), resulting in inhibition of archenteron elongation or skeletal spicule formation.

[6] = Maximum solubility in seawater; assay type: physicochemical; conditions: saline or isotonic, kinetic from dmso stock, visible crystals formed at higher concentrations
Method: as §2

[7] = treated at zygote stage, monitored to four-arm pluteus

Compound	Inhibition of lamellipodium formation [1]	Outcome of EdU incorporation screen [4]	IC50 [4] [µM]	Inhibition of cell migration (wound healing) compared with 100 µM CK-666 [2]	IC50 [3] [µM]	Arp2/3 inhibition reached at saturation [3]	solubility [6] [µM]	other results
COCC(=O)NCCc1c[nH]c2ccccc12 [CK-689, N-(2-(1H-Indol-3-yl)ethyl)-2-methoxy-acetamide, reference compound]	formed a single wide lamellipodium encompassing most cell perimeter							Inhibition of wound healing ([2]; 100 µM): but not CK-689, inhibits wound healing; Activity against Arp2/3 in vitro ([3]; pyrene-actin assay): inactive
Cc1[nH]c2ccccc2c1CCNC(=O)c1cc([N+](=O)[O-])ccc1Cl [Compound 12, 2-Chloro-N-[2-(2-methyl-1H-indol-3-yl)ethyl]-5-nitrobenzamide]	significantly less active than CK-666	scored positive	13.8					
Cc1[nH]c2ccccc2c1CCNC(=O)c1ccccc1C(=O)c1ccccc1 [Compound 15, 2-Benzoyl-N-[2-(2-methyl-1H-indol-3-yl)ethyl]benzamide]		scored positive	20	inhibited cell migration as efficiently as 100 µM CK-666	104	100%	5 to 20 (≈ 1.91 to 7.65 µg/mL)	Dose-dependent inhibition of lamellipodium formation, potency relative to CK-666 [1]: significantly more potent than CK-666; Cell rounding and detachment in wound healing assay ([2]; 25 µM): not observed; Cell rounding and detachment in wound healing assay ([2]; 100 µM): induced cell rounding followed by detachment from the substrate; Developmental abnormality ([5]; 5 μM): suppressed plutei growth; Developmental abnormality ([5]; 20 μM): Non-specific defects; also recorded: defective gastrulation was observed; Minimum effective concentration, Systemic Toxicity [5, 7]: 5 µM
CCc1cc2cc(C(=O)NCCc3c(C)[nH]c4ccc(C)cc34)sc2s1 [Compound 24, N-[2-(2,5-Dimethyl-1H-indol-3-yl)ethyl]-5-ethylthieno[2,3-b]thiophene-2-carboxamide]	significantly less active than CK-666	scored positive	4.01					
Cc1ccc2[nH]c(C)c(CCNC(=O)c3ccc(C(=O)c4ccccc4)o3)c2c1 [Compound 30, 5-Benzoyl-N-[2-(2,5-dimethyl-1H-indol-3-yl)ethyl]-2-furamide]	significantly less active than CK-666	scored positive	0.696					
Cc1[nH]c2ccc(OCc3ccccc3)cc2c1CCNC(=O)c1cccc(Br)c1 [Compound 59, N-{2-[5-(Benzyloxy)-2-methyl-1H-indol-3-yl]ethyl}-3-bromobenzamide]		scored positive	11.5	more active than CK-666	180	saturation was not reached	5 to 20 (≈ 2.32 to 9.27 µg/mL)	Dose-dependent inhibition of lamellipodium formation, potency relative to CK-666 [1]: slightly less active than CK-666; Cell rounding and detachment in wound healing assay ([2]; 25 µM): not observed; Cell rounding and detachment in wound healing assay ([2]; 100 µM): to a lesser extent 59 induced cell rounding followed by detachment from the substrate; Effect on archenteron elongation [5]: inhibited elongation of the archenteron at approximately half-size; Effect on primary mesenchyme cell (PMC) migration [5]: altered PMC migration resulting in the lack of ventrolateral clusters and spicules; Minimum effective concentration, Inhibition of Archenteron elongation [5, 7]: 10 µM; Minimum effective concentration, Inhibition of Spicule formation [5, 7]: 5 µM
Cc1[nH]c2c(Cl)cccc2c1CCNC(=O)c1cc(S(=O)(=O)N(C)C)c(Cl)cc1Cl [Compound 69, 2,4-Dichloro-N-[2-(7-chloro-2-methyl-1H-indol-3-yl)ethyl]-5-[(dimethylamino)sulfonyl]benzamide]		scored positive	50.5	inhibited cell migration as efficiently as 100 µM CK-666	61	67%	5 to 20 (≈ 2.44 to 9.78 µg/mL)	Developmental phenotype ([5]; 12 μM, 22°C): Defective gastrulation; Effect on archenteron elongation [5]: inhibited elongation of the archenteron at approximately half-size; Effect on primary mesenchyme cell (PMC) migration [5]: altered PMC migration resulting in the lack of ventrolateral clusters and spicules; Minimum effective concentration, Inhibition of Archenteron elongation [5, 7]: 5 µM; Minimum effective concentration, Inhibition of Spicule formation [5, 7]: 5 µM
